Patent US9365583B2, “Substituted pyrazoles and uses thereof” (Genentech, Inc., priority 2013, dated 2016)

Target: T1, N-terminally GST-tagged DLK (catalytic domain amino acid 1-520) (Homo sapiens, UniProt Q12852)
T1 construct: N-terminally GST-tagged DLK (catalytic domain amino acid 1-520); purchased Carna Bioscience
T1 sequence (Q12852 1-520): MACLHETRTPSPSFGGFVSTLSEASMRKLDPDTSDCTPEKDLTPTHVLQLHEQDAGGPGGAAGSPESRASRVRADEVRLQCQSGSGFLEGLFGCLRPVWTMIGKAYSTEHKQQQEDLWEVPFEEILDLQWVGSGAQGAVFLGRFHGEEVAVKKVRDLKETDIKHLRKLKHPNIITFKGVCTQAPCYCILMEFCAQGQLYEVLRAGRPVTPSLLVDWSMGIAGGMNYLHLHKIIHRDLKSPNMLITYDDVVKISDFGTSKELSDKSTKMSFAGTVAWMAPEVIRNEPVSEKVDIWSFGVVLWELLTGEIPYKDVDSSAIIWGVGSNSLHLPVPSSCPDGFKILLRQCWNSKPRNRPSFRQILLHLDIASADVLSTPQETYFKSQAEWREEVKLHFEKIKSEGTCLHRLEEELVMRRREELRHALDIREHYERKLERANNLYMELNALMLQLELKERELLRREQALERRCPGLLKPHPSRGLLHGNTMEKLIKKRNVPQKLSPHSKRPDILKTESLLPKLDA
Experiment: DLK TR-FRET inhibition assay
Type: biochemical
Settings: 5 nM GST-DLK, 40 nM HIS-MKK4 K131M substrate, 30 μM ATP, 60 minutes at ambient temperature
Summary of the method: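 Phosphorylated MKK4 was quantified by TR-FRET (Eu-labelled anti-phospho-MKK4, D2 anti-HIS; 3 h, 665 and 615 nm emission) after EDTA quench. Reactions held 5 nM GST-tagged DLK catalytic domain (1-520), 40 nM HIS-MKK4 K131M substrate, 30 μM ATP and compound (3-fold series from 20 uM), 60 min, room temperature, pH 7.5.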

Row | Compound | Ki [nM]
1 | CC(C)n1nc(-c2cnc(N)c(OC(F)F)c2)cc1[C@H]1[C@@H]2C[C@H](N3CCC(F)(F)C3)C[C@@H]21 [compound 89, 3-(difluoromethoxy)-5-(5-((1R,3r,5S,6r)-3-(3,3-difluoropyrrolidin-1-yl)bicyclo[3.1.0]hexan-6-yl)-1-isopropyl-1H-pyrazol-3-yl) pyridin-2-amine] | 6.42
2 | CC(C)n1nc(-c2cnc(N)c(C(F)(F)F)c2)cc1[C@H]1[C@@H]2C[C@H](N3C[C@@H]4C[C@H]3CO4)C[C@@H]21 [compound 72, 5-(5-((1R,3r,5S,6S)-3-((1S,4S)-2-oxa-5-azabicyclo[2.2.1]heptan-5-yl)bicyclo[3.1.0]hexan-6-yl)-1-isopropyl-1H-pyrazol-3-yl)-3-(trifluoromethyl)pyridin-2-amine] | 3.48
3 | CC(C)n1nc(-c2cnc(N)c(OC(F)(F)F)c2)cc1[C@H]1[C@@H]2C[C@@H](N3CCN(C)CC3)C[C@@H]21 [compound 66, 5-(1-isopropyl-5-((1R,3s,5S,6r)-3-(4-methylpiperazin-1-yl)bicyclo [3.1.0]hexan-6-yl)-1H-pyrazol-3-yl)-3-(trifluoromethoxy) pyridin-2-amine] | 2.26
4 | 5-(1-isopropyl-5-((1R,3s,5S,6R)- 3-((R)-2-methylmorpholino) bicyclo[3.1.0]hexan-6-yl)-1H- pyrazol-3-yl)-3-(trifluoromethyl) pyridin-2-amine [compound 1] | 2.28
5 | CC(C)n1nc(-c2cnc(N)c(OC(F)F)c2)cc1[C@H]1[C@@H]2C[C@H](N3CC(F)(F)C3)C[C@@H]21 [compound 43, 5-(5-((1R,3r,5S,6r)-3-(3,3-difluoro-azetidin-1-yl)bicyclo[3.1.0]hexan-6-yl)-1-isopropyl-1H-pyrazol-3-yl)-3-(difluoromethoxy) pyridin-2-amine] | 3.05
6 | CC(C)n1nc(-c2cnc(N)c(C(F)(F)F)c2)cc1[C@H]1[C@@H]2C[C@H](N3CCN(C4COC4)CC3)C[C@@H]21 [compound 116, 5-(1-isopropyl-5-((1R,3r,5S,6r)-3-(4-(oxetan-3-yl)piperazin-1-yl)bicyclo[3.1.0]hexan-6-yl)-1H-pyrazol-3-yl)-3-(trifluoromethyl) pyridin-2-amine] | 7.79
7 | CC(C)n1nc(-c2cnc(N)c(OC(F)(F)F)c2)cc1[C@H]1[C@@H]2C[C@@H](N3CC(F)C3)C[C@@H]21 [compound 28, 5-(5-((1R,3s,5S,6r)-3-(3-fluoro-azetidin-1-yl)bicyclo[3.1.0]hexan-6-yl)-1-isopropyl-1H-pyrazol-3-yl)-3-(trifluoromethoxy) pyridin-2-amine] | 2.54
8 | COC1CCN([C@H]2C[C@@H]3[C@H](C2)[C@H]3c2cc(-c3cnc(N)c(OC(F)F)c3)nn2C(C)C)C1 (stereo partly drawn) [compound 73, 3-(difluoromethoxy)-5-(1-isopropyl-5-((lR,3r,5S,6r)-3-(3-methoxy-pyrrolidin-1-yl)bicyclo[3.1.0]hexan-6-yl)-1H-pyrazol-3-yl) pyridin-2-amine] | 1.81
9 | CCN1CCN([C@H]2C[C@@H]3[C@H](C2)[C@H]3c2cc(-c3cnc(N)c(C(F)(F)F)c3)nn2C(C)C)CC1 [compound 16, 5-(5-((1R,3r,5S,6r)-3-(4-ethylpiperazin-1-yl)bicyclo[3.1.0]hexan-6-yl)-1-isopropyl-1H-pyrazol-3-yl)-3-(trifluoromethyl)pyridin-2-amine] | 9.1
10 | CO[C@@H]1CCN([C@H]2C[C@@H]3[C@H](C2)[C@H]3c2cc(-c3cnc(N)c(OC(F)F)c3)nn2C(C)C)C1 [compound 186, 3-(difluoromethoxy)-5-(1-isopropyl-5-((1R,3r,5S,6R)-3-((R)-3-methoxypyrrolidin-1-yl)bicyclo [3.1.0]hexan-6-yl)-1H-pyrazol-3-yl)pyridin-2-amine] | 1.6
11 | CC(C)n1nc(-c2cnc(N)c(C(F)(F)F)c2)cc1[C@H]1[C@@H]2CC(N3CCN4CCOCC4C3)C[C@@H]21 (single isomer, unassigned) [compound 184] | 2.1
12 | 5-(1-isopropyl-5-((1R,3r,5S,6R)- 3-((R)-2-methylmorpholino) bicyclo[3.1.0]hexan-6-yl)-1H- pyrazol-3-yl)-3-(trifluoromethyl) pyridin-2-amine [compound 2] | 2.06
13 | CC(C)n1nc(-c2cnc(N)c(C(F)(F)F)c2)cc1[C@H]1[C@@H]2C[C@H](n3cccn3)C[C@@H]21 [compound 111, 5-(5-((1R,3r,5S,6r)-3-(1H-pyrazol-1-yl)bicyclo[3.1.0]hexan-6-yl)-1-isopropyl-1H-pyrazol-3-yl)-3-(trifluoromethyl)pyridin-2-amine] | 8.61
14 | CC(C)n1nc(-c2cnc(N)c(OC(F)F)c2)cc1[C@H]1[C@@H]2C[C@H](N3CCO[C@@H](C)C3)C[C@@H]21 [compound 78, 3-(difluoromethoxy)-5-(1-isopropyl-5-((1R,3r,5S,6S)-3-((S)-2-methylmorpholino)bicyclo[3.1.0]hexan-6-yl)-1H-pyrazol-3-yl) pyridin-2-amine] | 0.52
15 | CC(C)n1nc(-c2cnc(N)c(C(F)(F)F)c2)cc1[C@H]1[C@@H]2C[C@H](N)C[C@@H]21 [compound 269, 5-(5-((1R,3r,5S,6r)-3-amino-bicyclo[3.1.0]hexan-6-yl)-1-isopropyl-1H-pyrazol-3-yl)-3-(trifluoro-methyl)pyridin-2-amine] | 4.1
16 | COCCN1CC[C@@]12C[C@@H]1[C@H](C2)[C@H]1c1cc(-c2cnc(N)c(C(F)(F)F)c2)nn1C(C)C [compound 161, 5-(1-isopropyl-5-((1′R,2r,5′S,6′r)-1-(2-methoxyethyl)spiro [azetidine-2,3′-bicyclo[3,1.0]hexan]-6′-yl)-1H-pyrazol-3-yl)-3-(trifluoro-methyl)pyridin-2-amine] | 2.5
17 | CC(C)n1nc(-c2cnc3ccn([C@@H](C)c4ccccn4)c3c2)cc1[C@H]1[C@@H]2C[C@@H](N3CCOCC3)C[C@@H]21 [compound 24, 4-((1R,3R,5S,6r)-6-(1-isopropyl-3-(1-((S)-1-(pyridin-2-yl)ethyl)-1H-pyrrolo[3,2-b]pyridin-6-yl)-1H-pyrazol-5-yl)bicyclo[3.1.0]hexan-3-yl)morpholine] | 0.34
18 | CC(C)n1nc(-c2cnc(N)c(OC(F)(F)F)c2)cc1[C@@H]1[C@@H]2C[C@H](N3CCOCC3)C[C@@H]21 [compound 125, 5-(1-isopropyl-5-((1R,3r,5S,6s)-3-morpholinobicyclo[3.1.0]hexan-6-yl)-1H-pyrazol-3-yl)-3-(trifluoro-methoxy)pyridin-2-amine] | > 1600
19 | Nc1ncc(-c2cc([C@H]3[C@@H]4C[C@H](N5CCCOCC5)C[C@@H]43)n(CC(F)F)n2)cc1OC(F)(F)F [compound 256, 5-(5-((1R,3r,5S,6r)-3-(1,4-oxazepan-4-yl)bicyclo[3.1.0]hexan-6-yl)-1-(2,2-difluoroethyl)-1H-pyrazol-3-yl)-3-(trifluoromethoxy) pyridin-2-amine] | 1.1
20 | CC(C)n1nc(-c2cnc(N)c(OC(F)F)c2)cc1[C@H]1[C@@H]2C[C@@H](N3CCOCC3)C[C@@H]21 [compound 84, 3-(difluoromethoxy)-5-(1-isopropyl-5-((1R,3s,5S,6r)-3-morpholino-bicyclo[3.1.0]hexan-6-yl)-1H-pyrazol-3-yl)pyridin-2-amine] | 1.68
21 | CC(C)n1nc(-c2cnc(N)c(OC(F)F)c2)cc1[C@H]1[C@@H]2C[C@@H](N3CC(F)(F)C3)C[C@@H]21 [compound 42, 5-(5-((1R,3s,5S,6r)-3-(3,3-difluoroazetidin-1-yl)bicyclo[3.1.0]hexan-6-yl)-1-isopropyl-1H-pyrazol-3-yl)-3-(difluoromethoxy) pyridin-2-amine] | 4.53
22 | CC(C)n1nc(-c2cnc(N)c(OC(F)F)c2)cc1[C@H]1[C@@H]2C[C@H](F)C[C@@H]21 [compound 213, 3-(difluoromethoxy)-5-(5-((1R,3r,5S,6r)-3-fluorobicyclo[3.1.0]hexan-6-yl)-1-isopropyl-1H-pyrazol-3-yl)pyridin-2-amine] | 5.1
23 | Nc1ncc(-c2cc([C@H]3[C@@H]4C[C@@H](N5CCCOCC5)C[C@@H]43)n(CC(F)F)n2)cc1OC(F)F [compound 232, 5-(5-((1R,3s,5S,6r)-3-(1,4-oxazepan-4-yl)bicyclo[3.1.0]hexan-6-yl)-1-(2,2-difluoroethyl)-1H-pyrazol-3-yl)-3-(difluoromethoxy) pyridin-2-amine] | 1.1
24 | CC(C)n1nc(-c2cnc(N)c(C(F)(F)F)c2)cc1[C@H]1[C@@H]2C[C@@H](N(C)C3COC3)C[C@@H]21 [compound 50, 5-(1-isopropyl-5-((1R,3s,5S,6r)-3-(methyl(oxetan-3-yl)amino)bicyclo[3.1.0]hexan-6-yl)-1H-pyrazol-3-yl)-3-(trifluoromethyl) pyridin-2-amine] | 2.83
25 | CC(C)n1nc(-c2cnc(N)c(C(F)(F)F)c2)cc1[C@H]1[C@@H]2C[C@H](N3CCOC3=O)C[C@@H]21 [compound 59, 3-((1R,3r,5S,6r)-6-(3-(6-amino-5-(trifluoromethyl)pyridin-3-yl)-1-isopropyl-1H-pyrazol-5-yl)bicyclo[3.1.0]hexan-3-yl) oxazolidin-2-one] | 3.06
